A short description of test [1]: Inhibition of biotinylated 5-(4-((Z)-3-Carboxy-3-hydroxyacryloyl)-4-(4-chlorobenzyl)piperidine-1-carbonyl)-2-((13,35-dioxo-39-((3aR,4R,6aS)-2-oxohexahydro-1H-thieno[3,4-d]imidazole-4-yl)-3,6,9,16,19,22,25,28,31-nonaoxa-12,34-diazanonatriacontyl)oxy)benzoic acid binding to Influenza A virus (A/California/07/2009(H1N1)) N-terminal GST-tagged polymerase acidic subunit N-terminal domain expressed in Escherichia coli BL21 (DE3) RIL cells measured after 120 mins by Alphascreen assay.

In test [2] the test system is Influenza A virus (A/California/07/2009(H1N1)). Kind of test: Inhibition of endonuclease activity of Influenza A virus (A/California/07/2009(H1N1)) N-terminal GST-tagged polymerase acidic subunit N-terminal domain expressed in Escherichia coli BL21 (DE3) RIL cells using single-stranded circular DNA M13mp18 as substrate measured after 4 hrs by GelRed-staining based agarose gel electrophoresis.

For test [3] the test system is unchanged. Kind of test: Inhibition of Influenza A virus (A/California/07/2009(H1N1)) neuraminidase at 400 uM by DNA-linked inhibitor antibody assay.
The test system is the same in test [4]. Kind of test: Inhibition of endonuclease activity of Influenza A virus (A/California/07/2009(H1N1)) N-terminal GST-tagged polymerase acidic subunit N-terminal domain expressed in Escherichia coli BL21 (DE3) RIL cells at 0.01 to 100 uM using single-stranded circular DNA M13mp18 as substrate measured after 4 hrs by GelRed-staining based agarose gel electrophoresis. Particulars: dose 0.01-100 µM.

Test [5] can be described thus: Inhibition of Influenza A virus (A/California/07/2009(H1N1)) neuraminidase by DNA-linked inhibitor antibody assay.

The structures appear in SMILES notation. Counter-ions that a name gives are not always drawn. Activity calls are given as the source filed them. The rule behind the calls is not given here.

`O=C(/C=C(O)/C=C/c1ccc(O)cc1)/C=C/c1ccc(O)cc1` registered an IC50 in test [1] of over 50 µM.
As for `O=c1c(O)c(-c2cc(O)c(O)c(O)c2)oc2cc(O)cc(O)c12` [MYRICETIN], the concentration for half-maximal inhibition (IC50) in test [1] came to 0.76 µM. In test [2], the inhibition result is “Active”. In addition, the inhibition result in test [3] is “inactive”.
With `COc1ccc(/C=C/C(=O)/C=C(O)/C=C/c2ccc(OC)c(OC)c2)cc1OC` [DIMETHYLCURCUMIN], in test [1], the concentration for half-maximal inhibition (IC50) is over 50 µM.
Turning to `O=c1cc(-c2ccc(O)c(O)c2)oc2cc(O)c([C@@H]3O[C@H](CO)[C@@H](O)[C@H](O)[C@H]3O)c(O)c12` [ISOORIENTIN], in test [1], the IC50 was over 50 µM.
In test [1], `O=c1c(O)c(-c2ccc(O)cc2)oc2cc(O)cc(O)c12` [KAEMPFEROL] returned a half-inhibitory concentration (IC50) of 16 µM.
As to `O=c1cc(-c2ccc(O)c(O)c2)[nH]c2cc(O)cc(O)c12`, the inhibition result in test [2] is “Active”.
On to `O=C1N[C@@H]2C(=C[C@H](O)[C@@H](O)[C@H]2O)c2cc3c(c(O)c21)OCO3` [NARCICLASINE], for which the half-inhibitory concentration (IC50) in test [1] was over 50 µM.
Regarding `O=C(/C=C(O)/C=C/c1ccc(O)c(O)c1)/C=C/c1ccc(O)c(O)c1`, the concentration for half-maximal inhibition (IC50) in test [1] was found to be 1.7 µM. Besides, in test [2], the inhibition result was “Active”. Moreover, the inhibition entry in test [3] was “inactive”.
In turn, `O=c1cc(-c2cccc(O)c2O)oc2cc(O)cc(O)c12` displayed an IC50 in test [1] of 17 µM.
In turn, `COc1cc(OC)c2c(=O)cc(-c3cc(OC)c(OC)c(OC)c3)oc2c1` yielded a 50% inhibitory concentration (IC50) in test [1] of 1.8 µM.
As to `Oc1cc(O)c2c(c1)O[C@H](c1cc(O)c(O)c(O)c1)[C@H](O)C2` [EPIGALLOCATECHIN], the concentration for half-maximal inhibition (IC50) in test [1] was found to be 3.3 µM. Against the preceding compound, the IC50 is about 1.8-fold higher.
Regarding `Oc1cc(O)c2c(c1)O[C@H](c1ccc(O)c(O)c1)[C@H](O)C2` [(-)-EPICATECHIN], in test [1], the IC50 is over 50 µM.
With `O=c1c(O[C@@H]2OC[C@H](O)[C@H](O)[C@H]2O)c(-c2ccc(O)c(O)c2)oc2cc(O)cc(O)c12` [GUAJAVERIN], the IC50 in test [1] was found to be 17 µM.
For `O=c1c(-c2ccc(O)cc2)coc2cc(O)cc(O)c12` [GENISTEIN], the IC50 in test [1] was over 50 µM.
`O=c1c(O)c(-c2ccc(O)c(O)c2)oc2cc(O)ccc12` [FISETIN] gave a 50% inhibitory concentration (IC50) in test [1] of 0.96 µM.
In turn, `O=C1c2c(O)c(=O)ccn2N([C@@H]2c3ccccc3SCc3c2ccc(F)c3F)[C@@H]2COCCN12` [BALOXAVIR] had an IC50 in test [1] of 0.024 µM.
`O=C(NC(O)C(=O)O)c1ccccc1` (stereo not drawn): the IC50 in test [1] is over 50 µM.
Take `O=c1cc(-c2ccc(O)c(O)c2)oc2cccc(O)c12`: in test [1], the IC50 was found to be 1.3 µM.
The compound `O=c1cc(-c2cc(O)c(O)c(O)c2)oc2cc(O)cc(O)c12` [TRICETIN] gave a concentration for half-maximal inhibition (IC50) in test [1] of 0.16 µM. Against the preceding compound, the IC50 is about 8.1-fold lower.
`O=C1C=C(O)C(=O)c2c(O)c(O)cc(O)c21` came in with an IC50 in test [1] of 0.43 µM.
In test [1], `O=C(/C=C/c1ccc(O)c(O)c1)O[C@@H]1C[C@](O)(C(=O)O)C[C@@H](O)[C@H]1O` [CHLOROGENIC ACID] came in with an IC50 of over 50 µM. Further, in test [3], the inhibition entry was “inactive”.
Compound `COc1cc([C@@H]2[C@H]3CO[C@@]4(C)C(=O)[C@@H]2C=C([C@H]2Oc5cc(O)cc(O)c5C(=O)[C@@H]2O)[C@@H]34)ccc1O` displayed a half-maximal inhibitory concentration (IC50) in test [1] of over 50 µM.
On to `Oc1ccc(C2CNCCc3c2cc(O)c(O)c3Cl)cc1` (stereo not drawn) [FENOLDOPAM MESYLATE], for which the IC50 in test [1] came to 31 µM.
In turn, `O=c1c(O)c(-c2ccc(O)c(O)c2)oc2cc(O)cc(O)c12` [QUERCETIN] returned an IC50 in test [1] of 0.67 µM. In addition, the inhibition entry in test [3] is “inactive”. The inhibition entry in test [4] was “Active”.
On to `O=c1cc(-c2ccc(O)c(O)c2)oc2c([C@@H]3O[C@H](CO)[C@@H](O)[C@H](O)[C@H]3O)c(O)cc(O)c12` [ORIENTIN], for which the 50% inhibitory concentration (IC50) in test [1] came out at 0.043 µM.
The compound `C[C@@H]1O[C@@H](Oc2c(-c3cc(O)c(O)c(O)c3)oc3cc(O)cc(O)c3c2=O)[C@H](O)[C@H](O)[C@H]1O` gave a half-maximal inhibitory concentration (IC50) in test [1] of 1.8 µM.
As to `O=C(c1ccc(O)c(O)c1)C1(O)Oc2cc(O)cc(O)c2C1=O` (stereo not drawn), in test [1], the IC50 worked out at 9.8 µM. Compared with the last compound, the IC50 is about 5.4-fold higher.
For `O=c1cc(-c2ccc(O)cc2)oc2c([C@@H]3O[C@H](CO)[C@@H](O)[C@H](O)[C@H]3O)c(O)cc(O)c12` [VITEXIN], in test [1], the IC50 amounted to 1.9 µM. The inhibition entry in test [3] was “inactive”.
In test [5], `CCC(CC)O[C@@H]1C=C(C(=O)O)C[C@H](N)[C@H]1NC(C)=O` [OSELTAMIVIR CARBOXYLATE] returned a Ki of 0.039 µM. That is a double-digit nanomolar value.
`O=c1c(O)c(-c2ccc(O)c(O)c2)[nH]c2cc(O)cc(O)c12` returned an IC50 in test [1] of 0.2 µM.
Take `O=C(O)/C(O)=C/C(=O)C1(Cc2ccc(Cl)cc2)CCN(Cc2ccccc2)CC1`: the IC50 in test [1] was 0.026 µM; in the test with Influenza A virus, 0.43 µM.
`CC(C)=CCC1=C(O)C(=O)c2ccccc2C1=O` [LAPACHOL] displayed an IC50 in test [1] of 19 µM.
In turn, `COc1cc([C@H]2Oc3cc([C@H]4Oc5cc(O)cc(O)c5C(=O)[C@@H]4O)ccc3O[C@@H]2CO)ccc1O` [SILYBIN A] yielded an IC50 in test [1] of over 50 µM.
For the compound `O=c1cc(-c2ccc(O)c(O)c2)oc2ccccc12`, the IC50 in test [1] is 2.4 µM.
In the case of `O=c1cc(-c2cccc(O)c2)oc2cc(O)cc(O)c12`, the IC50 in test [1] is over 50 µM.
For the compound `CCCCC(=O)C1=C(O)C(=O)c2c(O)c(O)cc(O)c2C1=O`, the IC50 in test [1] worked out at 0.29 µM. In test [2], the inhibition entry is “Active”. In addition, in test [3], the inhibition entry is “inactive”.
Consider `Cc1cc2c(C(C)C)c(O)c(O)c(C=O)c2c(O)c1-c1c(C)cc2c(C(C)C)c(O)c(O)c(C=O)c2c1O` [GOSSYPOL], for which, in test [1], the half-maximal inhibitory concentration (IC50) came out at 13 µM.
In the case of `Oc1cc(O)c2c(c1)O[C@H](c1ccc(O)c(O)c1)[C@@H](O)C2` [CIANIDANOL], the half-maximal inhibitory concentration (IC50) in test [1] was found to be 42 µM.
For the compound `O=c1cc(-c2ccc(O)c(O)c2)oc2cc(O[C@@H]3O[C@H](CO)[C@@H](O)[C@H](O)[C@H]3O)cc(O)c12` [GALUTEOLIN], the IC50 in test [1] was determined as 32 µM. The IC50 values of the last two compounds are within 1.5-fold of each other.
Compound `O=C1c2c(O)cc(O)cc2O[C@H](c2cc(O)c(O)c(O)c2)[C@H]1O` [AMPELOPSIN] displayed a concentration for half-maximal inhibition (IC50) in test [1] of 22 µM.
In test [1], `O=c1c(O)cccc2cc(O)c(O)c(O)c12` [PURPUROGALLIN] returned an IC50 of 1.5 µM.
In turn, `O=C(O[C@@H]1Cc2c(O)cc(O)cc2O[C@@H]1c1cc(O)c(O)c(O)c1)c1cc(O)c(O)c(O)c1` [EPIGALOCATECHIN GALLATE] yielded an IC50 in test [1] of 0.87 µM. For the same compound, in test [2], the inhibition result is “Active”. For the same compound, the inhibition entry in test [3] was “inactive”.
In the case of `Oc1cc(O)c2c(c1)O[C@@H](c1ccc(O)c(O)c1)[C@H](O)C2` [(-)-CATECHIN], in test [1], the half-maximal inhibitory concentration (IC50) was over 50 µM.
Compound `COc1cc(O)c2c(=O)c(OC)c(-c3ccc(OC)c(OC)c3)oc2c1` [RETUSIN] gave a 50% inhibitory concentration (IC50) in test [1] of over 50 µM.
As for `COc1cc(/C=C/C(=O)CC(=O)/C=C/c2ccc(O)c(OC)c2)ccc1O` [CURCUMIN], in test [1], the IC50 was 25 µM.
The compound `COc1cc(OC)c2c(=O)c(OC)c(-c3ccc(OC)c(OC)c3)oc2c1` showed an IC50 in test [1] of over 50 µM.
In the case of `O=c1cc(-c2ccc(O)c(O)c2)oc2cc(O)cc(O)c12` [LUTEOLIN], the IC50 in test [1] amounted to 0.072 µM. Besides, the inhibition result in test [2] was “Active”. In test [3], the inhibition result was “inactive”.
`O=c1cc(-c2ccc(O)cc2)oc2cc(O)cc(O)c12` [APIGENIN] came in with an IC50 in test [1] of over 50 µM.
In the case of `O=c1oc(-c2ccc(O)c(O)c2)cc2cccc(O)c12` [THUNBERGINOL A], the IC50 in test [1] stood at 1.4 µM.
Consider `O=c1c(O)c(-c2ccc(O)cc2O)oc2cc(O)cc(O)c12` [MORIN], for which the half-inhibitory concentration (IC50) in test [1] was 9 µM.
Consider `COc1ccc(-c2cc(=O)c3c(O)cc(O)cc3o2)cc1O` [DIOSMETIN], for which the concentration for half-maximal inhibition (IC50) in test [1] was over 50 µM.
Compound `O=c1cc(-c2ccccc2O)oc2cc(O)cc(O)c12` came in with a 50% inhibitory concentration (IC50) in test [1] of over 50 µM.
The compound `COc1cc([C@@H]2Oc3c(O)cc([C@H]4Oc5cc(O)cc(O)c5C(=O)[C@@H]4O)cc3[C@H]2CO)ccc1O` [SILICRISTIN A] displayed an IC50 in test [1] of over 50 µM.
Turning to `O=C1C[C@@H](c2ccc(O)c(O)c2)Oc2cc(O)cc(O)c21` [ERIODICTYOL], the IC50 in test [1] turned out to be 18 µM. That is a double-digit micromolar value.
`CCn1cc(C(=O)O)c(=O)c2ccc(C)nc21` [NALIDIXIC ACID] came in with an IC50 in test [1] of over 50 µM.
Turning to `O=c1cc(-c2cccc(O)c2)oc2cccc(O)c12`, in test [1], the half-inhibitory concentration (IC50) was over 50 µM.
On the same count and under the same terms, then `COc1c(O)cc2oc(-c3ccc(O)c(O)c3)cc(=O)c2c1O` [EUPAFOLIN], with 0.93 µM; and `O=C1c2c(O)cc(O)cc2O[C@H](c2ccc(O)c(O)c2)[C@H]1O` [(+)-TAXIFOLIN], with 50 µM.

(Values after ChEMBL document CHEMBL4706556, “Unraveling the anti-influenza effect of flavonoids: Experimental validation of luteolin and its congeners as potent influenza endonuclease inhibitors” (Eur J Med Chem, 2020).)
